For test [1], the target named is T1, Thyroid hormone receptor alpha (Homo sapiens, UniProt P10827).
T1 sequence (P10827 whole entry): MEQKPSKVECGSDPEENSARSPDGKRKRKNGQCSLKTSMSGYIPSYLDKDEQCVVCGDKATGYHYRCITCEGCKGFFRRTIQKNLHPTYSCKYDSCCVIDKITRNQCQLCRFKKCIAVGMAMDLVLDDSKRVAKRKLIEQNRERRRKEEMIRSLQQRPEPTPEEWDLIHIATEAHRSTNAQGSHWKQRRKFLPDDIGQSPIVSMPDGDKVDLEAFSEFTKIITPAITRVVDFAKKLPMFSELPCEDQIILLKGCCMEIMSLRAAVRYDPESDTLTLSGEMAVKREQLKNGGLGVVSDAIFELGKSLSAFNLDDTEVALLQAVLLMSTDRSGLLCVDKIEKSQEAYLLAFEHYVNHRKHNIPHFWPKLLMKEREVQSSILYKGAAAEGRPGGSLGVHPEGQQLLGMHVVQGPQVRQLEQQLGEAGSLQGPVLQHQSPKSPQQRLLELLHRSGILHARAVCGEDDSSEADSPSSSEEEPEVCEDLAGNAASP
In words: Binding affinity at human TRalpha1.

Test [2] addresses T1, Thyroid hormone receptor alpha.
Description: Agonist activity at human TR-alpha-1 expressed in CHO cells assessed as TRAF-alpha-1-driven gene transactivation by alkaline phosphatase reporter gene assay
The species named for another test is Homo sapiens. The experiment in a line: Selectivity for human TR-alpha-1 to human TRbeta1.
Test [3] deals with T2, Thyroid hormone receptor beta (Homo sapiens, UniProt P10828).
T2 sequence (P10828 whole entry): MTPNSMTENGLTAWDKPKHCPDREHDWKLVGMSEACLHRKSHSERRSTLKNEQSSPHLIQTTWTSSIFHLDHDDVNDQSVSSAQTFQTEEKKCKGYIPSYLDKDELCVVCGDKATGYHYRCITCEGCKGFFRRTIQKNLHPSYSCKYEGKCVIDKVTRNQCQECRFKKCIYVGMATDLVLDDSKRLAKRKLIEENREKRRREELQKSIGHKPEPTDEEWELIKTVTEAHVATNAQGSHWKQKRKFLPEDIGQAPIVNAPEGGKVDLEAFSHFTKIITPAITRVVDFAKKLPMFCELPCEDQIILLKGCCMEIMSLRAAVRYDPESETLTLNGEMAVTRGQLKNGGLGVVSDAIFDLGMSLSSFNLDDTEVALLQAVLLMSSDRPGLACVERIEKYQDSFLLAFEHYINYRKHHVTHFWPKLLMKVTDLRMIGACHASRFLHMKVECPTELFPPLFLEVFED
The experiment in a line: Binding affinity at human TRbeta1.

Test [4] addresses T2, Thyroid hormone receptor beta. In words: Agonist activity at human TR-beta-1 expressed in CHO cells assessed as TRAF-beta-1-driven gene transactivation by alkaline phosphatase reporter gene assay. The format is functional, cell-based.

Data on nine compounds can be found in ChEMBL document CHEMBL1139115, “Thyroid receptor ligands. Part 7: Indirect antagonists of the thyroid hormone receptor with improved affinity” (Bioorg Med Chem Lett, 2007).

Consider `CCNc1cccc(COc2c(Br)cc(CCC(=O)O)cc2Br)c1`, for which the IC50 was determined as 78 nM in test [1] and 23 nM in test [3]. Further, the concentration giving a half-maximal response (EC50) in test [2] was 23 nM; in test [4] it was 49 nM. Also, in the test filed under Homo sapiens, the Ratio IC50 was determined as 3.4.

With `Cc1ccccc1COc1c(Br)cc(CCC(=O)O)cc1Br`, the IC50 in test [1] was 1300 nM; in test [3], 200 nM. The Ratio IC50 in the test listed under Homo sapiens was 3.8.

In the case of `CCN(CC)c1cccc(COc2c(Br)cc(CCC(=O)O)cc2Br)c1`, the half-maximal inhibitory concentration (IC50) in test [1] was determined as 480 nM; in test [3] it was 87 nM. Further, the Ratio IC50 in the test filed under Homo sapiens worked out at 3.2.

`Cc1ccc(COc2c(Br)cc(CCC(=O)O)cc2Br)cc1`: the IC50 in test [1] worked out at 600 nM; in test [3], 360 nM. The Ratio IC50 in the test listed under Homo sapiens was 0.98.

Take `Nc1cccc(COc2c(Br)cc(CCC(=O)O)cc2Br)c1`: the figures for the 50% inhibitory concentration (IC50) in test [1] and in test [3] were 2600 nM and 820 nM, respectively. Further, the Ratio IC50 in the test listed under Homo sapiens came out at 4.5.

Turning to `O=C(O)CCc1cc(Br)c(OCc2ccccc2)c(Br)c1`, the concentration for half-maximal inhibition (IC50) in test [1] came to 680 nM; in test [3], 230 nM. Besides, in the test filed under Homo sapiens, the Ratio IC50 was 1.7.

Consider `O=C(O)CCc1cc(Br)c(OCc2cccc(Cl)c2)c(Br)c1`, for which the 50% inhibitory concentration (IC50) was found to be 500 nM in test [1] and 190 nM in test [3]. Also, in the test listed under Homo sapiens, the Ratio IC50 turned out to be 1.5.

On to `Cc1cccc(COc2c(Br)cc(CCC(=O)O)cc2Br)c1`, for which the half-maximal inhibitory concentration (IC50) in test [1] is 360 nM; in test [3] it was 120 nM. In the test listed under Homo sapiens, the Ratio IC50 is 1.8.

Consider `O=C(O)CCc1cc(Br)c(OCc2cccc(C(F)(F)F)c2)c(Br)c1`, for which the half-maximal inhibitory concentration (IC50) in test [1] was determined as 370 nM; in test [3], 160 nM. Further, the Ratio IC50 in the test filed under Homo sapiens is 1.4.
